Reference: ChEMBL document CHEMBL1201862, “PubChem BioAssay data set” (2004)
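48-hour exposure; five concentrations; linearly interpolated endpoints. GI50 is the concentration that inhibits growth by half.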 Active and inactive are the calls of the source. No stated cut-off is given here; in the data, active = GI50 up to about 1.1 µM and inactive = higher. Residues, ends and D or L forms follow the SMILES beside them. *: point of attachment. Boc = CC(C)(C)OC(=O)*

What was measured:
Experiment in all cases: DTP human tumour cell line panel, 48 h
SK-MEL-28 = tested on: SK-MEL-28
HOP-92 = tested on: HOP-92
A498 = tested on: A498
NCI-H460 = tested on: NCI-H460
A549 = tested on: A549
SN12C = tested on: SN12C
RPMI-8226 = tested on: RPMI-8226
SNB-19 = tested on: SNB-19
MOLT-4 = tested on: MOLT-4
U-251 = tested on: U-251
HCC 2998 = tested on: HCC 2998
K562 = tested on: K562
SF-295 = tested on: SF-295
BT-549 = tested on: BT-549
ACHN = tested on: ACHN
786-0 = tested on: 786-0
UACC-257 = tested on: UACC-257
OVCAR-5 = tested on: OVCAR-5
SF-268 = tested on: SF-268
DU-145 = tested on: DU-145
HCT-15 = tested on: HCT-15
IGROV-1 = tested on: IGROV-1
NCI-H522 = tested on: NCI-H522
T47D = tested on: T47D
OVCAR-8 = tested on: OVCAR-8
MDA-MB-435 = tested on: MDA-MB-435
EKVX = tested on: EKVX
NCI/ADR-RES = tested on: NCI/ADR-RES
RXF 393 = tested on: RXF 393
UO-31 = tested on: UO-31
HOP-62 = tested on: HOP-62
OVCAR-4 = tested on: OVCAR-4
MCF7 = tested on: MCF7
SK-MEL-2 = tested on: SK-MEL-2
MDA-N = tested on: MDA-N
NCI-H226 = tested on: NCI-H226
NCI-H23 = tested on: NCI-H23
MDA-MB-231 = tested on: MDA-MB-231
SR = tested on: SR
TK-10 = tested on: TK-10
PC-3 = tested on: PC-3
HL-60 = tested on: HL-60
SK-MEL-5 = tested on: SK-MEL-5
SW-620 = tested on: SW-620
CAKI-1 = tested on: CAKI-1
OVCAR-3 = tested on: OVCAR-3
UACC-62 = tested on: UACC-62
SNB-75 = tested on: SNB-75
Malme-3M = tested on: Malme-3M
CCRF-CEM = tested on: CCRF-CEM
LOX IMVI = tested on: LOX IMVI
M14 = tested on: M14
HCT-116 = tested on: HCT-116
HT-29 = tested on: HT-29

CSc1ccc2c(cc1=O)[C@@H](NC(=O)c1ccc(N)cc1)CCc1cc(O)c(O)c(O)c1-2
GI50 (SK-MEL-28): > 75 µM (inactive)
GI50 (HOP-92): 29.4 µM (inactive)
GI50 (A498): 73.8 µM (inactive)
GI50 (NCI-H460): 15 µM (inactive)
GI50 (A549): 19.1 µM (inactive)
GI50 (SN12C): 29.5 µM (inactive)
GI50 (RPMI-8226): 35 µM (inactive)
GI50 (SNB-19): 21.8 µM (inactive)
GI50 (MOLT-4): 33.1 µM (inactive)
GI50 (U-251): 19.4 µM (inactive)
GI50 (HCC 2998): 13.6 µM (inactive)
GI50 (K562): 12.1 µM (inactive)
GI50 (SF-295): 17.2 µM (inactive)
GI50 (BT-549): 16.9 µM (inactive)
GI50 (ACHN): 17 µM (inactive)
GI50 (786-0): 12.8 µM (inactive)
GI50 (UACC-257): 20.8 µM (inactive)
GI50 (OVCAR-5): 22 µM (inactive)
GI50 (SF-268): 14.3 µM (inactive)
GI50 (DU-145): > 75 µM (inactive)
GI50 (HCT-15): 11.2 µM
GI50 (IGROV-1): 20.4 µM (inactive)
GI50 (NCI-H522): 13.8 µM (inactive)
GI50 (T47D): 44 µM (inactive)
GI50 (OVCAR-8): 26.5 µM (inactive)
GI50 (MDA-MB-435): 14.5 µM (inactive)
GI50 (EKVX): 36.4 µM (inactive)
GI50 (NCI/ADR-RES): 18.6 µM (inactive)
GI50 (RXF 393): > 75 µM (inactive)
GI50 (UO-31): 20.3 µM (inactive)
GI50 (HOP-62): 14.4 µM (inactive)
GI50 (OVCAR-4): 16.1 µM (inactive)

COC(=O)C(Cc1c[nH]c2ccccc12)NC(=O)C(Cc1c[nH]c2ccccc12)NC(=O)C(Cc1c[nH]c2ccccc12)NC(=O)C(Cc1c[nH]c2ccccc12)NC(=O)C(Cc1c[nH]c2ccccc12)NC(=O)C(Cc1c[nH]c2ccccc12)NC(=O)OC(C)(C)C (stereo not given) (Boc-WWWWWW-OMe; configuration not given here)
GI50 (MCF7): 5.25 µM (inactive)
GI50 (SK-MEL-28): 14.4 µM (inactive)
GI50 (SK-MEL-2): 61.7 µM (inactive)
GI50 (MDA-N): 41.6 µM (inactive)
GI50 (NCI-H226): 64 µM (inactive)
GI50 (NCI-H460): > 100 µM (inactive)
GI50 (A549): 31.7 µM (inactive)
GI50 (SN12C): 49.9 µM (inactive)
GI50 (NCI-H23): 28.5 µM (inactive)
GI50 (RPMI-8226): 57 µM (inactive)
GI50 (SNB-19): 47.3 µM (inactive)
GI50 (MDA-MB-231): > 100 µM (inactive)
GI50 (SR): 82.4 µM (inactive)
GI50 (TK-10): 31.2 µM (inactive)
GI50 (MOLT-4): 63.4 µM (inactive)
GI50 (U-251): 54.7 µM (inactive)
GI50 (HCC 2998): > 100 µM (inactive)
GI50 (K562): > 100 µM (inactive)
GI50 (BT-549): 44 µM (inactive)
GI50 (ACHN): > 100 µM (inactive)
GI50 (PC-3): 52.5 µM (inactive)
GI50 (HL-60): > 100 µM (inactive)
GI50 (786-0): > 100 µM (inactive)
GI50 (SK-MEL-5): 19.3 µM (inactive)
GI50 (UACC-257): 30.3 µM (inactive)
GI50 (SW-620): > 100 µM (inactive)
GI50 (OVCAR-5): > 100 µM (inactive)
GI50 (CAKI-1): > 100 µM (inactive)
GI50 (OVCAR-3): > 100 µM (inactive)
GI50 (SF-268): 50.4 µM (inactive)
GI50 (DU-145): 32.9 µM (inactive)
GI50 (HCT-15): > 100 µM
GI50 (IGROV-1): 36.9 µM (inactive)
GI50 (NCI-H522): 28.1 µM (inactive)
GI50 (T47D): 22.2 µM (inactive)
GI50 (OVCAR-8): 92.9 µM (inactive)
GI50 (UACC-62): 32 µM (inactive)
GI50 (MDA-MB-435): > 100 µM (inactive)
GI50 (SNB-75): 46 µM (inactive)
GI50 (Malme-3M): 69.5 µM (inactive)
GI50 (CCRF-CEM): > 100 µM (inactive)
GI50 (LOX IMVI): 38.1 µM (inactive)
GI50 (M14): > 10 µM (inactive)
GI50 (HCT-116): 37.3 µM (inactive)
GI50 (UO-31): 33 µM (inactive)
GI50 (HOP-62): > 100 µM (inactive)
GI50 (OVCAR-4): > 100 µM (inactive)
GI50 (HT-29): > 100 µM (inactive)
